Values of other authors as cited in patent publication US20020194154A1, “Systems, methods and computer program products for integrating biological/chemical databases using aliases” (priority 2001, published 2002).

Settings: side effect; text mining of HSDB

For CC(C)(C)NCC(O)c1cc(Cl)c(N)c(Cl)c1 (centres unmarked) [clenbuterol], the cardiac arrhythmia is listed as “can in some cases cause cardiac arrhythmia” and the heart rate is listed as “increases heart rate”.
